Test results published in patent US20230141284A1, “CANCER THERAPEUTIC METHOD” (ONO PHARMACEUTICAL CO., LTD., priority 2020, published 2023).

Tests used:
[1] = tested on: human acute myeloid leukemia cell lines; test: Anti-tumor effect on human acute myeloid leukemia cell lines (Cell Counting Kit-8); type: cell-based; conditions: administration alone, 100 to 1000 nmol/L, 48 hours
Experimental: The compound prepared in Example 3 (Compound B) was evaluated for anti-tumor activity against several human acute myeloid leukemia cell lines shown in the table of FIG. 13.
The cell lines above were suspended in medium (RPMI 1640 containing 10% FBS and 1% Penicillin-Streptomycin), respectively, and seeded into 96-well plates at a density of 5.0×10^4 cells/well. Immediately after seeding, mediums containing Compound B and Vehicle (0.1% at the final concentration of DMSO solution after addition to the medium), respectively, were added to each well and mixed well. The final concentration of Compound B after addition to the medium was prepared to be 100 to 1000 nmol/L, respectively. After culturing the cell lines for 48 hours at 37° C. and 5% CO2, 10 μL of Cell Counting Kit-8 (Dojindo) was added to each well, and after incubation for 60 minutes, the absorbance (450 nm) in each well was measured using a microplate reader. EC50 value was calculated from the absorbance value using Graphpad prism (Graphpad Software) to evaluate the effect of Compound B on cell proliferation. […] Relative cell count was calculated according to the following formula. Relative minimum cell count represents the minimum value of the above values.
Relative cell count (%)=(Absorbance (450 nm) in addition of Compound B−blank)/(Absorbance (450 nm) in addition of Vehicle (0.1% DMSO)−blank)×100 [Formula 1]

[2] = tested on: human acute myeloid leukemia cell lines (KG-1α, THP-1 and CMK); test: Anti-tumor effects in combination with anti-neoplastic agents, human acute myeloid leukemia cell lines; type: cell-based; conditions: combination with Compound B 10 to 1000 nmol/L, 48 hours, absorbance 450 nm
Experimental: (§1) The anti-tumor effects of the STING agonistic compounds pertaining to the present invention and combination thereof with anti-neoplastic agents were evaluated on several human acute myeloid leukemia cell lines (KG-1α, THP-1 and CMK) and human B-cell lymphoma cell lines (DOHH2 and OLI-Ly3) below.
The cell lines above were suspended in medium (RPMI 1640 containing 10% FBS and 1% Penicillin-Streptomycin), respectively, and seeded into 96-well plates at a density of 2.5 to 5×10^4 cells/well. Immediately after seeding, mediums containing Compound B prepared, respectively, such that the final concentrations after addition to the mediums become 0, 10, 30, 100, 300, and 1000 nmol/L and anti-neoplastic agents prepared such that those become the following final concentrations, respectively, were added to each well and mixed well. As a control, DMSO solution prepared such that the final concentration becomes 0.10% after addition to the medium was added thereto, separately. • Venetoclax (final concentrations: 0, 1, 10, 100, 1000, and 10000 nmol/L, respectively), • Cytarabine (final concentrations: 0, 1, 10, 100, 1000, and 10000 nmol/L, respectively), • Azacitidine (final concentrations: 0, 1, 10, 100, 1000, and 10000 nmol/L, respectively), and • Navitoclax (final concentrations: 0, 50, 500, and 5000 nmol/L, respectively) (the concentration of Compound B in combination with Navitoclax is 1000 nmol/L).
After culturing the cell lines for 48 hours at 37° C. and 5% CO2, 10 μL of Cell Counting Kit-8 (Dojindo) was added to each well, and after incubation for 60 minutes, the absorbance (450 nm) in each well was measured using a microplate reader. FIGS. 13, 14, and 15 show results thereof, respectively. In the figures, the “signal intensity” on the vertical axis represents the absorbance value (450 nm), and the lower the value, the higher the anti-tumor effect.

[3] = tested on: human B-cell lymphoma cell lines (DOHH2 and OLI-Ly3); test: Anti-tumor effects in combination with Navitoclax, human B-cell lymphoma cell lines; type: cell-based; conditions: combination with Compound B 1000 nmol/L, DOHH2 and OLI-Ly3, 48 hours
Experimental: as §1
The cell lines above were suspended in medium (RPMI 1640 containing 10% FBS and 1% Penicillin-Streptomycin), respectively, and seeded into 96-well plates at a density of 2.5 to 5×10^4 cells/well. Immediately after seeding, mediums containing Compound B prepared, respectively, such that the final concentrations after addition to the mediums become 0, 10, 30, 100, 300, and 1000 nmol/L and anti-neoplastic agents prepared such that those become the following final concentrations, respectively, were added to each well and mixed well. […]
After culturing the cell lines for 48 hours at 37° C. and 5% CO2, 10 μL of Cell Counting Kit-8 (Dojindo) was added to each well, and after incubation for 60 minutes, the absorbance (450 nm) in each well was measured using a microplate reader. […] In the figures, the “signal intensity” on the vertical axis represents the absorbance value (450 nm), and the lower the value, the higher the anti-tumor effect.

[4] = tested on: IRF (Interferon Regulatory Factor) pathway; test: Effect on IRF (Interferon Regulatory Factor) pathway, Quanti-luc reporter cells; type: cell-based; conditions: activation of the IRF pathway, luminescence, about 24 hours incubation
Experimental: The cells mainly described at lines 12-20 of the right column on page 183 in Mol Immunol. 2017, Vol. 90, p. 182-189 were suspended in RPMI medium to prepare 2×10^6 cells/mL of cell suspension. 50 μL of the cell suspensions were dispensed into a 96-well plate, to which 50 μL of 6 to 20,000 nmol/L compound solutions were added. After adding the compound, the mixture thereof was incubated at 37° C. for about 24 hours. After incubation, 10 μL of cell suspensions were collected from each well, which were mixed with 50 μL of Quanti-luc (Invivogen). Then, the activation of the IRF pathway was measured by detecting luminescence using a microplate reader (Molecular Devices).

[5] = Conversion of a prodrug to its active body (Compound B) in human plasma; type: in vitro ADME; conditions: 1 μmol/L, 37° C., 60 minutes
Experimental: (§2) The solutions of the example compounds in Table 2 below (50 μmol/L, 50% acetonitrile with 5% DMSO) were added to plasma (245 μL), respectively, such that the final concentrations thereof become 1 μmol/L. After keeping them the temperature at 37° C. for 60 minutes, 40 μL of the reaction solutions were taken therefrom, and added to 200 μL of acetonitrile/ethanol (7:3) containing Candesartan (internal standard).
(§3) The concentration of the compound prepared in Example 3 (Compound B) in the plasma resulting from the above reaction was analyzed by LC-MS/MS according to the following method.
(§4) The whole amount was transferred to a filter plate for protein removal and filtered by suction, and the filtrate thereof was diluted 2-fold with water. [LC column] Shim-pack XR-ODSII 2.0 mm ID×75 mm (Shimadzu Corporation) [LC condition] Column temperature: 40° C. Mobile phase: A: 0.2% formic acid in 5 mM ammonium acetate solution; and
(§5) [MS conditions] Electrospray, positive mode, multiple reaction monitoring; MS monitor ion: Compound B: m/z353.0→m/z311.2, DP: 80, CE: 35; and Candesartan (internal standard): m/z309.1→m/z163.0, DP: 71, CE: 21.
(§6) A regression formula was calculated from the peak area ratio (peak area of Compound B/peak area of Candesartan) of the real sample and the standard sample for the calibration curve in the same matrix, and the peak area ratio of the real sample was substituted into the regression formula to calculate the quantitative value. 60 minutes later, the concentration of Compound B in the sample was compared, and the conversion rate (%) thereof was calculated using the following formula:
(§7) Conversion rate (%)=Concentration of Compound B in the sample after 60 minutes (μmol/L)×100

[6] = tested on: melanoma cell line B16F10; test: Combination experiments in subcutaneously melanoma cell line B16F10 tumor-bearing mice model (Example 23); type: in vivo, mice (C57/BL6); conditions: until Day 30
Experimental: • Vehicle and control antibody (rIgG1) (n=8 or 6), • Compound A (0.3 mg/kg) and control antibody (rIgG1) (n=6), • Anti-PD-1 antibody 4H2 (10 mg/kg (but 20 mg/kg only in the first dose only); n=6), and • Compound A (0.3 mg/kg) and anti-PD-1 antibody 4H2 (10 mg/kg (but 20 mg/kg only for the first dosage)) (n=6).
In the Combination Experiment 1, Compound A was administered once 10 days after transplantation while the anti-PD-1 antibody 4H2 and control antibody were administered 4 times every 6 days since 10 days after transplantation, respectively.
• Vehicle and control antibody (rIgG1) (n=8 or 6), • Compound A (0.3 mg/kg) and control antibody (rIgG1) (n=6), • Anti-VEGFR2 antibody DC101 (BioXCell) (10 mg/kg; n=6), and • Compound A (0.3 mg/kg) and anti-VEGFR2 antibody DC101 (10 mg/kg) (n=6).
In the Combination Experiment 2, Compound A was administered 4 times every 7 days since 10 days after transplantation while anti-VEGFR2 antibody DC101 and control antibody were administered 7 times every 3 or 4 days once 10 days after transplantation, respectively.
Vehicle and Compound A were administered intravenously while control antibody, anti-PD-1 antibody, and anti-VEGFR2 antibody were administered intraperitoneally, respectively.
FIGS. 9 and 10 show results thereof.

[7] = tested on: colon cancer cell line MC38; test: Compound A and anti-PD-1 antibody 4H2 in MC38 tumor-bearing mouse model (Example 21); type: in vivo, mice (C57/BL6)
Experimental: Compound A was administered intravenously once 8 days after transplantation, and the anti-PD-1 antibody 4H2 was administered intraperitoneally 4 times every 6 days since 8 days after transplantation. • Vehicle (n=9), • Compound A (0.1 mg/kg; n=9), • Anti-PD-1 antibody 4H2 (10 mg/kg (but 20 mg/kg only in the first dosage); n=9), and • Compound A (0.1 mg/kg) and anti-PD-1 antibody 4H2 (10 mg/kg (but 20 mg/kg only in the first dosage); n=9).
FIGS. 6 and 7 show results thereof.

[8] = tested on: human acute myeloid leukemia cell line MV4-11; test: Anti-tumor effect in subcutaneously tumor model bearing human acute myeloid leukemia cell line MV4-11; type: in vivo; conditions: dosages of 1.0 mg/kg and 3.0 mg/kg; immunodeficient mice; until Day 28
Experimental: They were grouped based on tumor volume 6 days after transplantation, and Compound A (0.3, 1.0, and 3.0 mg/kg, respectively; n=8) and Vehicle (n=8) were administered to the subcutaneously tumor-bearing mice, respectively.

[9] = Conversion of a prodrug to its active body (Compound B) in mouse plasma; type: in vitro ADME; conditions: 1 μmol/L, 37° C., 60 minutes
Experimental: as §2, §3, §4, §5, §6, §7

CC(=O)c1cc(-c2ncc(-c3cn[nH]c3)c3onc(N)c23)c(F)cc1N [Example 3, 1-(2-amino-5-(3-amino-7-(1H-pyrazol-4-yl)isoxazolo[4,5-c]pyridin-4-yl)-4-fluorophenyl)ethan-1-one]
anti-tumor effect (cell proliferation) [1]: significant anti-tumor effect
anti-tumor activity of Azacitidine [2]: enhanced
anti-tumor activity of Cytarabine [2]: enhanced
anti-tumor activity of Venetoclax [2]: enhanced
anti-tumor activity of Navitoclax [3]: enhanced
EC50 [4]: 40 nM

CC(=O)c1cc(-c2ncc(-c3cnn(COP(=O)(O)O)c3)c3onc(N)c23)c(F)cc1N [Example 10(1), (4-(4-(5-acetyl-4-amino-2-fluorophenyl)-3-aminoisoxazolo[4,5-c]pyridin-7-yl)-1H-pyrazol-1-yl)methyl dihydrogen phosphate]
Plasma conversion rate Human [5]: + + +
anti-tumor effect of anti-VEGFR2 antibody ([6]; Compound A 0.3 mg/kg 4 times every 7 days combined with anti-VEGFR2 antibody DC101 10 mg/kg): enhanced
anti-tumor effect of anti-PD-1 antibody ([6]; Compound A 0.3 mg/kg once combined with anti-PD-1 antibody 4H2 10 mg/kg (20 mg/kg first dosage)): enhanced
tumor-reducing effect ([7]; Compound A 0.1 mg/kg combined with anti-PD-1 antibody 4H2, 28 days after transplantation): showed the tumor-reducing effect
anti-tumor effect observed with anti-PD-1 antibody alone ([7]; Compound A 0.1 mg/kg i.v. once combined with anti-PD-1 antibody 4H2 10 mg/kg (20 mg/kg first dosage)): enhanced
number with complete tumor remission ([7]; combination of Compound A (0.1 mg/kg) and the anti-PD-1 antibody): 5 out of 9
tumor growth (tumor volume) [8]: suppressed tumor growth
Plasma conversion rate Mouse [9]: + + +
